Measured values reported in article PMC10892818, “An Antiherpesviral Host-Directed Strategy Based on CDK7 Covalently Binding Drugs: Target-Selective, Picomolar-Dose, Cross-Virus Reactivity” (Pharmaceutics, 2024).

How the values were obtained:
[1] = Neutral Red uptake assay (NRA), uninfected HFFs; type: cell-based; conditions: human, read-out: CC50 (VZV-GFP system)
Experimental: The cytotoxic level of the compounds was determined by the use of an established quantitation of cell viability (i.e., Neutral Red uptake assay) performed after 3–7 d of compound incubation on uninfected cells (according to the respective duration of the antiviral reporter-based replication assay performed in parallel) as described earlier in [44].

HCMV UL97-C603W = assay: HCMV reporter-based antiviral assay, drug-resistant mutant; type: cell-based, human cytomegalovirus; conditions: Human betaherpesvirus 5, read-out: Measured EC50 ref. drugs UL97-C603W
Experimental: (§1) For the infection experiments, stocks of the following recombinant, reporter protein-expressing viruses (GFP or YFP (i.e., green or yellow fluorescent protein, respectively)) were propagated (in permissive cells), determined in their infectious titers performing the respective reporter assays, stored by aliquots at −80 °C, and used for the assessment of antiviral drug activities: human cytomegalovirus HCMV AD169-GFP (HFFs); murine cytomegalovirus MCMV C3X-GFP (MEFs); guinea pig cytomegalovirus GPCMV v403-GFP (GPEFs); human herpesvirus type 6A HHV-6A U1102-GFP (J-Jhan); herpes simplex virus type 1 HSV-1 166v VP22-GFP (HFFs); varicella zoster virus VZV Oka-GFP (HFFs); Epstein-Barr virus EBV Akata-GFP (Akata-BX1-GFP carrier cells; kindly provided by Lindsey Hutt-Fletcher and Rona Scott, Dept. Microbiol. Immunol., LSUHSC Univ., Shreveport, LA, USA); and Kaposi’s sarcoma-associated herpesvirus KSHV rKSHV.219-GFP/RFP (in iSLK.219 carrier cells).
(§2) For HCMV AD169-GFP infection, the replication assay was based on a seeding of 225,000 HFFs or 13,500 HFFs in 12 well or 96 well plates, respectively, which were then inoculated with HCMV AD169-GFP [55] at an MOI of 0.25 GFP-FU/mL/7 d for a 90 min period of inoculum–cell adsorption, followed by a medium refreshment including the immediate addition of antiviral compounds. At 7 d p.i., the infected HFFs were either directly fixed with 10% formalin for 20 min at 4 °C (when used for infection in the 96 well format) or lysed and transferred to 96 well plates (when used for infection in the 12 well format) so that the reporter of viral replication could be quantified by GFP fluorometry using a Perkin Elmer Victor X4 Multimode Plate Reader (Perkin Elmer, Waltham, MA, USA).
(§3) Due to the fact that the HCMV-encoded protein kinase pUL97 represents a functional and structural ortholog of the host CDKs (vCDK/pUL97), the viral mutants of ORF-UL97 were assessed for sensitivity against CDK7 inhibitors.

HCMV UL97-H411Y [2] = assay: as above; type: cell-based, human cytomegalovirus; conditions: Human betaherpesvirus 5, read-out: Measured EC50 ref. drugs UL97-H411Y
Experimental: as §1, §2, §3

HCMV UL97-M460I = system: HCMV UL97-M460I; design: method as in PMID 31940472; key: R-high, high-level drug resistance; R-int, intermediate-level drug resistance; R-low, low-level drug resistance; S, drug sensitivity; conditions: cited from earlier work
HCMV UL97-T409M = system: HCMV UL97-T409M; design: method as in PMID 31940472; key: R-high, high-level drug resistance; R-int, intermediate-level drug resistance; R-low, low-level drug resistance; S, drug sensitivity; conditions: cited from earlier work
HCMV UL97-H411Y [3] = system: HCMV UL97-H411Y; design: method as in PMID 31940472; key: R-high, high-level drug resistance; R-int, intermediate-level drug resistance; R-low, low-level drug resistance; S, drug sensitivity; conditions: cited from earlier work
HCMV UL97-C480F = system: HCMV UL97-C480F; design: method as in PMID 31940472; key: R-high, high-level drug resistance; R-int, intermediate-level drug resistance; R-low, low-level drug resistance; S, drug sensitivity; conditions: cited from earlier work
HCMV UL97-C592G = system: HCMV UL97-C592G; design: method as in PMID 31940472; key: R-high, high-level drug resistance; R-int, intermediate-level drug resistance; R-low, low-level drug resistance; S, drug sensitivity; conditions: cited from earlier work
HCMV UL97-L397R = system: HCMV UL97-L397R; design: method as in PMID 31940472; key: R-high, high-level drug resistance; R-int, intermediate-level drug resistance; R-low, low-level drug resistance; S, drug sensitivity; conditions: cited from earlier work
HCMV UL97-H520Q = system: HCMV UL97-H520Q; design: method as in PMID 31940472; key: R-high, high-level drug resistance; R-int, intermediate-level drug resistance; R-low, low-level drug resistance; S, drug sensitivity; conditions: cited from earlier work

Structure (SMILES)	CC50 [1]	EC50 (HCMV UL97-C603W)	EC50 (HCMV UL97-H411Y [2])	Reported phenotype UL97-M460I (HCMV UL97-M460I)	Reported phenotype UL97-T409M (HCMV UL97-T409M)	Reported phenotype UL97-H411Y (HCMV UL97-H411Y [3])	Reported phenotype UL97-C480F (HCMV UL97-C480F)	Reported phenotype UL97-C592G (HCMV UL97-C592G)	Reported phenotype UL97-L397R (HCMV UL97-L397R)	Reported phenotype UL97-H520Q (HCMV UL97-H520Q)
Nc1ccn(C[C@@H](CO)OCP(=O)(O)O)c(=O)n1 [CDV, cidofovir]	> 100 µM	0.41 µM	0.42 µM	S	S	S	S	S	S	S
Nc1nc(O)c2ncn(COC(CO)CO)c2n1 [GCV, ganciclovir]	> 100 µM	9.87 ± 1 µM	3.76 ± 0.6 µM	R-high	R-low	R-low	R-int	R-int	S	R-high
